According to PubChem BioAssay (NCI):
Several values for one entry are separate records, joined by “and”; a condition that tells them apart may be missing. Equal entries are not always repeated.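 Protocol summary: plate cells (96-well), add compound at 5 concentrations, incubate 48 h, interpolate endpoints linearly. GI50 = concentration required for 50% inhibition of growth. The concentration for full growth arrest is given as TGI.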

Tests used:
Assay in all cases: growth of human tumour cells (NCI), 48 h
M19-MEL melanoma = system: M19-MEL melanoma
DMS 114 small cell lung = system: DMS 114 small cell lung
KM20L2 colon = system: KM20L2 colon
LXFL 529 NSCLC = system: LXFL 529 NSCLC
RXF-631 renal = system: RXF-631 renal
XF 498 CNS = system: XF 498 CNS
T-47D breast = system: T-47D breast
BT-549 breast = system: BT-549 breast
MDA-N = system: MDA-N

Structure (SMILES) | TGI (M19-MEL melanoma) [µM] | TGI (DMS 114 small cell lung) [µM] | TGI (KM20L2 colon) [µM] | TGI (LXFL 529 NSCLC) [µM] | TGI (RXF-631 renal) [µM] | TGI (XF 498 CNS) [µM] | GI50 (T-47D breast) | TGI (T-47D breast) | TGI (BT-549 breast) | other results
Cc1ccccc1-n1c(C)nc(-c2ccccc2)cc1=O | > 100 | > 100 | > 100 | > 100 | > 100 | – | – | – | – | –
O=C(O)c1ccccc1NC(=O)C1CCCCC1 | > 100 | > 100 | > 100 | > 100 | > 100 | > 100 | – | – | – | –
C[C@H]1C(=O)CC[C@]2(C)CCC(C(C)(C)O)CC12O (some centres undefined) | – | > 100 | > 100 | > 100 | > 100 | – | – | – | – | –
c1ccc2c(c1)C1=NCCN1c1ccccc1-2 | 11 | – | 14.2 | 13 | 9.69 | – | – | – | – | –
O=S(=O)(C/C(=N\O)c1ccccc1)c1ccccc1 | > 100 | – | > 100 | > 100 | > 100 | > 100 | – | – | – | –
C=CCCCc1ccc(C(O)CCCCCCCCCCCC)o1 (centres undefined) | – | – | – | – | – | – | 15.1 µM | 34.6 µM | 43.3 µM | GI50 (BT-549 breast): 22.6 µM
Cc1cccc2c(N)c3ccccc3nc12 | – | – | – | – | – | – | 2.19 µM | 6.85 µM | 12.9 µM | GI50 (BT-549 breast): 3.23 µM
[Cl][Cd][Cl] | 24.1 | > 55 | – | 28.4 | > 88.9 | 43.1 | 9.63 µM | 19.5 µM | 2.07 µM and 17.6 µM | GI50 (MDA-N): 4.61 µM and 8.24 µM; TGI (MDA-N): 21.4 µM; GI50 (XF 498 CNS): 23.4 µM; GI50 (M19-MEL melanoma): 11.2 µM; GI50 (DMS 114 small cell lung): 25.8 µM; GI50 (LXFL 529 NSCLC): 13.3 µM; GI50 (RXF-631 renal): 38.8 µM
Oc1ccc(Cl)cc1CNc1nc2ccccc2[nH]1 | – | – | – | – | – | – | 13.3 µM | 47.9 µM | 23.3 µM | GI50 (BT-549 breast): 9.05 µM
CCCNc1nc2ccccc2c2c1S(=O)(=O)c1ccc(Cl)cc1C2=O | – | – | – | – | – | – | 1.35 µM | > 50 µM | > 50 µM | GI50 (BT-549 breast): 0.734 µM
CSc1cccc(NC(=O)OC2CCCCCCCCCCC2)c1 | – | – | – | – | – | – | – | > 100 µM | > 100 µM | TGI (MDA-N): 60.8 µM
Nc1n[nH]c(CCc2nc(N)n[nH]2)n1 | > 100 | > 100 | > 100 | > 100 | > 100 | – | – | – | – | –
COC1=C2CC(C)CC(OC)C(O)C(C)/C=C(\C)C(OC(N)=O)C(OC)/C=C\C=C(/C)C(=O)NC(=C(/C=N/N3CCCCC3)C1=O)C2=O (centres undefined) | 19 | – | 10.1 | 24.1 | 35.1 | 19.9 | – | – | – | –
Cc1cc2c(C)n(Cc3ccc(Cl)cc3Cl)nc2c(C(=O)O)c1C | > 100 | – | > 100 | > 100 | > 100 | > 100 | – | – | – | –
CC1=CC(=O)N(c2c(C)cccc2Cl)C(C)N1 (centres undefined) | > 100 | > 100 | > 100 | > 100 | > 100 | – | – | – | – | –
O=C1C=CC(CC(=O)c2ccc3ccccc3c2)O1 (centres undefined) | > 100 | – | 34.7 | 32.3 | – | > 100 | – | – | – | –

Structure (SMILES) | TGI (M19-MEL melanoma) [µM] | TGI (DMS 114 small cell lung) [µM] | TGI (KM20L2 colon) [µM] | TGI (LXFL 529 NSCLC) [µM] | TGI (RXF-631 renal) [µM] | TGI (XF 498 CNS) [µM] | GI50 (T-47D breast) | TGI (T-47D breast) | TGI (BT-549 breast) | other results
COC(=O)C1=CC2OC1(C)CCC2=O (centres undefined) | – | – | > 100 | > 100 | – | > 100 | – | – | – | –
COc1ccc2c(c1OC)C(=O)c1cnccc1C2=O | > 100 | > 100 | > 100 | > 100 | > 100 | > 100 | – | – | – | –
CCCCCCC(/C=N/O)C(C)(O)CCC (centres undefined) | > 100 | > 100 | > 100 | > 100 | – | > 100 | – | – | – | –
COc1ccc(C2=CC(c3ccc(OC)c(OC)c3)c3c(c4ccccc4oc3=O)O2)cc1OC (centres undefined) | – | – | – | – | – | – | 3.66 µM | > 100 µM | > 100 µM | GI50 (BT-549 breast): 92.6 µM
CO[C@H]1CC(c2ccc[nH]2)=N[C@]12O[C@@H](C)C[C@@H]1CCCCCCCc3ccc([nH]3)[C@H]12 | – | – | – | – | – | – | 0.732 µM | > 19.2 µM | 9.31 µM | GI50 (BT-549 breast): 1.21 µM
OCCN1CCN(CC/C=C2\c3ccccc3Sc3ccc(Cl)cc32)CC1 | – | – | – | – | – | – | 2.9 µM and 2.79 µM | 10.4 µM and 11.5 µM | 22.4 µM | GI50 (BT-549 breast): 7.89 µM
CNC(=O)OCC1C2=C(C(=O)C(C)=C(N)C2=O)N2CC3C(N3C)C12OC (centres undefined) | – | – | – | – | – | – | – | > 100 µM | > 100 µM | –
Cc1cc2c(cc1N)C(C)C1(CCC(=O)N2Cc2ccccc2)OCCO1 (centres undefined) | – | – | – | – | – | – | – | > 100 µM | > 100 µM | TGI (MDA-N): > 100 µM
O=C1CC(c2ccc(Cl)cc2)Oc2ccccc21 (centres undefined) | – | – | – | – | – | – | – | > 100 µM | – | –
C/C=C(\C)C(=O)N[C@H]1C(O)C[C@]2(C)C3CC[C@@]4(C)C(CC[C@@H]4C(C)N(C)C)C3CCC2C1O (some centres undefined) | – | – | – | – | – | – | 2.91 µM | 17.7 µM | 51.9 µM | GI50 (BT-549 breast): 16.9 µM
O=C1c2nc3n(c2C(=O)c2c1nc1n2CCC1)CCC3 | 0.387 | 5.29 | 11.4 | 21.5 | – | 19.6 | – | – | – | TGI (MDA-N): 3.47 µM
O=[N+]([O-])c1ccc(Cl)cc1C1SCc2nc3ccccc3n21 (centres undefined) | > 100 | > 100 | > 100 | > 100 | > 100 | > 100 | – | – | – | –
O=C1NCCS(=O)(=O)/C1=C\C=C\c1cccc(C(F)(F)F)c1 | – | – | – | – | – | – | 3.51 µM | 17.3 µM | 8.54 µM | GI50 (BT-549 breast): 2.4 µM
O=C(NO)c1ccc(O)c(O)c1 | > 100 | > 100 | > 100 | > 100 | > 100 | > 100 | – | – | – | –
O=C(O)C1=C(C(=O)Nc2ccc(NC(=O)C3=C(C(=O)O)C4C=CC3C4)cc2)C2C=CC1C2 | > 100 | > 100 | > 100 | > 100 | – | > 100 | – | – | – | –
COC(=O)C1=C(c2ccc3c(c2)OCO3)OC(c2cc(OC)c(OC)c(OC)c2)C1 (centres undefined) | > 100 | 9.33 | – | > 100 | – | > 100 | – | – | – | –
